One series relates to HIV-2 (ROD). Briefly: Inhibition of HIV-2 syncytium formation in CEM cells. The format is cell-based. Particulars: for EC50: Human immunodeficiency virus 2, CCRF-CEM, read-out: EC50 (μg/ml) HIV-2. The text has this:
(§1) The cell type used to determine activity of the compounds of the invention herein, i.e., the test compounds, against HIV was human T-lymphoblast (CEM) cells obtained from the American Tissue Cell Culture Collection (Rockville, Md.). HIV-1 (IIIB) was originally obtained from the culture of persistently HIV-1 infected H9 cells and was provided by R. C. Gallo and M. Popovic (National Cancer Institute, National Institutes of Health, Bethesda, Md.). HIV-2 (ROD) was originally obtained from L. M. Montagnier (Pasteur Institute, Paris, France).
(§2) To determine the antiviral activity of the test compounds, CEM cells were suspended at a cell density of approximately 300,000 cells per ml of culture medium and infected with approximately 100 CClD50 (100 CClD50 being the 50% cell culture infective dose) of HIV-1 (IIIB) or HIV-2 (ROD)). Then 100 μl of the infected cell suspensions was added to 200 μl micro titer plate wells containing 100 μl of appropriate serial (5-fold) dilutions of the test compounds. The inhibitory effect of the test compounds on HIV-1 or HIV-2 syncytium formation in CEM cells was examined microscopically on day four post infection. The 50% effective concentration (EC50) was defined as the test compound concentration that inhibits syncytium formation in the HIV-1 or HIV-2 infected cell cultures by 50%.
(§3) In some cases, the compounds had considerable cytotoxicity to CEM cells which made determination of the EC50 difficult. In these cases, the percent protection of the cells against virus-induced cytopathicity by the test compounds at the indicated compound concentration in the previous column is given.

A further series relates to HIV-1 (IIIB). Nature of the series: Inhibition of HIV-1 syncytium formation in CEM cells. Type of series: cell-based. Particulars: for EC50: Human immunodeficiency virus 1, IIIB, CCRF-CEM, read-out: EC50 (μg/ml) HIV-1.
Text: as §1, §2, §3

The next series has as its system CMV Davis strain. Briefly: Activity against HCMV: virus-induced cytopathicity in HEL cells. Type of series: cell-based, human cytomegalovirus (HCMV). Particulars: Human betaherpesvirus 5, HEL, 168 h, read-out: Antiviral IC50 (μg/ml) Davis strain. The procedure:
Confluent HEL cells grown in […] microtiter plates were inoculated with CMV at an input of 100 PFU (plaque forming units) per well. After a one to two hour incubation period, residual virus was removed and the infected cells were further incubated with MEM (Minimal Essential Medium) (supplemented with 2% inactivated Fetal Calf Serum (FCS), […], and 0.3% sodium bicarbonate) containing varying concentrations of the test compounds. Antiviral activity was expressed as EC50 (50% effective concentration), or test compound concentration required to reduce virus-induced cytopathicity after seven days by 50% compared to the untreated control.
In some cases, the compounds had considerable cytotoxicity against HEL cells, which made determination of the EC50's difficult. In these cases, an estimate of the percent protection at the compound concentration indicated in the previous columns is given.

Where [1] appears, read: protection of CEM cells against virus-induced cytopathicity at the compound concentration in the previous column.

Values after ≈ are worked out from the molar mass of the structure shown.

For orientation: melting point means the temperature, or range, at which the solid turns liquid. `[O-][n+]1c(Cl)cccc1SCc1ccccc1` [Compound 149, 6-chloro-(2-benzylthio)pyridine-N-oxide]: the melting point was 112 to 115 °C. In addition, the EC50 with HIV-2 (ROD) came out at 16 µg/mL (≈ 63.6 µM). Besides, in the series with HIV-1 (IIIB), the EC50 stood at 9 µg/mL (≈ 35.8 µM). Further, the IC50 with CMV Davis strain came out at 20 µg/mL (≈ 79.4 µM).

`Cc1ccc(C)c(C(C)Sc2cc(C)c3ccccc3n2)c1` (stereo not shown) [Compound 162, 2-[[1-(2,5-dimethylphenyl)ethyl]thio]-4-methylquinoline] came in with a melting point of 84 to 85 °C. The EC50 in the series with HIV-2 (ROD) was above 0.16 µg/mL. Moreover, the “HIV-2 % Protection” value with HIV-2 (ROD) (setting [1]) is listed as 0.0%. In addition, the EC50 in the series on HIV-1 (IIIB) is above 0.8 µg/mL. Further, the “HIV-1 % Protection” value in the series on HIV-1 (IIIB) (setting [1]) is reported as 0.0%. Besides, in the series on CMV Davis strain, the IC50 came out at 1.6 µg/mL (≈ 5.2 µM).

For the origin of these results see patent publication US6498254B1, “Antiretroviral compounds and compositions” (Uniroyal Chemical Company, Inc., priority 2001, dated 2002).
